Like-named read-outs stand apart in the source and are kept apart here. Starred links: 1 amine or outer side, 2 acyl side, 3 side chain; linkers in the order of their positions; H or OH if unused. Positions of bridges follow the written chain, without caps; N, C: chain ends. Non-standard residues stand in square brackets, D forms with d. Residues, ends and D or L forms follow the SMILES beside them. Chains are numbered I, II in the order given. *: point of attachment. d(isoGln) = NC(=O)[C@@H](CCC(=O)[*:2])N[*:1]; Phe(4-Cl) = N[C@@H](Cc1ccc(Cl)cc1)C(=O)O; isoGln = NC(=O)[C@H](CCC(=O)[*:2])N[*:1]; d(εLys) = N[C@H](CCCCN[*:1])C(=O)[*:2]; εLys = N[C@@H](CCCCN[*:1])C(=O)[*:2]; Aad = N[C@@H](CCCC(=O)O)C(=O)O; Cit = NC(=O)NCCC[C@H](N)C(=O)O; Heptanoyl = CCCCCCC(=O)*; Orn = NCCC[C@H](N)C(=O)O; Dab = NCC[C@H](N)C(=O)O; PhAc = O=C(Cc1ccccc1)*

The assay deals with T1, human V1aR (Homo sapiens, UniProt P37288).
T1 construct: expressed in transfected cells
Description: Agonist activity at vasopressin V1a receptors, cell-based FLIPR calcium assay. Conditions: for Emax: read-out: Efficacy Avg. (%). In outline: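 HEK Flp-In cells stably expressing human V1aR were loaded with Calcium 4 dye plus 2.5 mM probenecid for 1 h at 37 °C, then given half-log compound concentrations (final 0.1% DMSO) on FLIPR Tetra.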

The mark [1] stands for this setting: HEK-flpin cells stably expressing hV1aR, intracellular calcium fluorescence, averaged, read-out: EC50 (Avg).

T1 sequence (P37288 whole entry): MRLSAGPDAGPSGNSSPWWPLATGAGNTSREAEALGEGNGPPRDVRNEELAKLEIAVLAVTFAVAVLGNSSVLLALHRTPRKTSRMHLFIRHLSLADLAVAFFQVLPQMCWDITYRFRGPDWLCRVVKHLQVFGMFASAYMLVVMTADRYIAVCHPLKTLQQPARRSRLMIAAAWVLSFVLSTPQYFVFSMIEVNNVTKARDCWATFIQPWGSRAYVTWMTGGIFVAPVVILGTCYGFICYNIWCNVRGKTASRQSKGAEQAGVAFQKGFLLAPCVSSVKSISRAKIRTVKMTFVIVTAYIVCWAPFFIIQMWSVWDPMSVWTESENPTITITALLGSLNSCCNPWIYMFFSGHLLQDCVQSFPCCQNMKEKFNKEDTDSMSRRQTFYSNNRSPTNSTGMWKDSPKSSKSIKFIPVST

Usually EC50 stands for the midpoint of the concentration-response curve. As to `CC[C@H](C)[C@@H]1NC(=O)[C@H](Cc2ccccc2)NC(=O)[C@@H](O)CSSC[C@@H](C(=O)N2CCC[C@H]2C(=O)N[C@@H](CCNC(=O)[C@@H](N)CCCCNC(=O)CC[C@H](NC(=O)[C@H](CCCNC(=N)N)NC(=O)[C@@H]2CCCN2C(=O)[C@H](CCCCN)NC(=O)[C@H](CC(N)=O)NC(=O)[C@H](CCC(N)=O)NC(=O)[C@H](Cc2ccccc2)NC(=O)[C@@H](Cc2ccc(OC)cc2)NC(=O)CC(C)C)C(N)=O)C(=O)NCC(N)=O)NC(=O)[C@H](CC(N)=O)NC(=O)[C@H](CCC(N)=O)NC1=O` [Compound 33], the Emax was 50%. For the same compound, the EC50 under setting [1] came out at 1.1 nM.
Take `CC[C@H](C)[C@@H]1NC(=O)[C@H](Cc2ccccc2)NC(=O)[C@@H](N)CSSC[C@@H](C(=O)N2CCC[C@H]2C(=O)N[C@@H](CCNC(=O)[C@H](N)CCCCNC(=O)CC[C@H](NC(=O)[C@H](CCCNC(=N)N)NC(=O)[C@@H]2CCCN2C(=O)[C@H](CCCNC(N)=O)NC(=O)[C@H](CC(N)=O)NC(=O)[C@H](CCC(N)=O)NC(=O)[C@H](Cc2ccccc2)NC(=O)[C@@H](Cc2ccc(OC)cc2)NC(=O)Cc2ccccc2)C(N)=O)C(=O)NCC(N)=O)NC(=O)[C@H](CC(N)=O)NC(=O)[C@H](CCC(N)=O)NC1=O` [Compound 49] (I: H-CFIQNCP[Dab]G-NH2 / II: PhAc-[dY](Me)FQN[Cit]PR[isoGln][d(εLys)]; disulfide I:1-I:6; amide I:8-II:C): the EC50 was determined as 0.76 nM and the Emax was found to be 55%.
For `CC[C@H](C)[C@@H]1NC(=O)[C@H](Cc2ccccc2)NC(=O)[C@@H](N)CSSC[C@@H](C(=O)N2CCC[C@H]2C(=O)N[C@@H](CCCNCCCCCNC(=O)CC[C@H](NC(=O)[C@H](CCCNC(=N)N)NC(=O)[C@@H]2CCCN2C(=O)[C@H](CCC(N)=O)NC(=O)[C@H](CC(N)=O)NC(=O)[C@H](CCC(N)=O)NC(=O)[C@H](Cc2ccccc2)NC(=O)[C@@H](Cc2ccc(OC)cc2)NC(=O)Cc2ccccc2)C(N)=O)C(=O)NCC(N)=O)NC(=O)[C@H](CC(N)=O)NC(=O)[C@H](CCC(N)=O)NC1=O` [Compound 14], the half-maximal effective concentration (EC50) turned out to be 2.1 nM and the Emax was 37%.
For `CC[C@H](C)[C@@H]1NC(=O)[C@H](Cc2ccccc2)NC(=O)[C@@H](N)CSSC[C@@H](C(=O)N2CCC[C@H]2C(=O)N[C@@H](CCCNC(=O)[C@@H](N)CCCCNC(=O)CC[C@H](NC(=O)[C@H](CCCNC(=N)N)NC(=O)[C@@H]2CCCN2C(=O)[C@H](CCCNC(=N)N)NC(=O)[C@H](CC(N)=O)NC(=O)[C@H](CCC(N)=O)NC(=O)[C@H](Cc2ccccc2)NC(=O)[C@H](Cc2ccc(Cl)cc2)NC(=O)Cc2ccccc2)C(N)=O)C(=O)NCC(N)=O)NC(=O)[C@H](CC(N)=O)NC(=O)[C@H](CCC(N)=O)NC1=O` [Compound 27] (I: H-CFIQNCP[Orn]G-NH2 / II: PhAc-[Phe(4-Cl)]FQNRPR[isoGln][εLys]; disulfide I:1-I:6; amide I:8-II:C), in that order: 1 nM and 70%.
For `CC[C@H](C)[C@@H]1NC(=O)[C@H](Cc2ccccc2)NC(=O)[C@@H](O)CSSC[C@@H](C(=O)N2CCC[C@H]2C(=O)N[C@@H](CCNC(=O)[C@@H](N)CCCCNC(=O)CC[C@H](NC(=O)[C@H](CCCNC(=N)N)NC(=O)[C@@H]2CCCN2C(=O)[C@H](CCCCN)NC(=O)[C@H](CC(N)=O)NC(=O)[C@H](CCC(N)=O)NC(=O)[C@H](Cc2ccccc2)NC(=O)[C@@H](Cc2ccc(OC)cc2)NC(=O)Cc2ccccc2)C(N)=O)C(=O)NCC(N)=O)NC(=O)[C@H](CC(N)=O)NC(=O)[C@H](CCC(N)=O)NC1=O` [Compound 32], in that order: 1 nM and 56%.
As for `CC[C@H](C)[C@@H]1NC(=O)[C@H](Cc2ccccc2)NC(=O)[C@@H](N)CSSC[C@@H](C(=O)N2CCC[C@H]2C(=O)N[C@@H](CCCNCCCCCCNC(=O)CC[C@H](NC(=O)[C@H](CCCNC(=N)N)NC(=O)[C@@H]2CCCN2C(=O)[C@H](C)NC(=O)[C@H](CC(N)=O)NC(=O)[C@H](CCC(N)=O)NC(=O)[C@H](Cc2ccccc2)NC(=O)[C@@H](Cc2ccc(OC)cc2)NC(=O)C2CCCCC2)C(N)=O)C(=O)NCC(N)=O)NC(=O)[C@H](CC(N)=O)NC(=O)[C@H](CCC(N)=O)NC1=O` [Compound 19], the Emax worked out at 50%. Further, the EC50 under setting [1] is 2.5 nM.
On to `CC[C@H](C)[C@@H]1NC(=O)[C@H](Cc2ccccc2)NC(=O)[C@@H](N)CSSC[C@@H](C(=O)N2CCC[C@H]2C(=O)N[C@@H](CCCNCCCC(=O)NCCCC[C@H](NC(=O)[C@H](CCCNC(=N)N)NC(=O)[C@@H]2CCCN2C(=O)[C@H](CCCNC(=N)N)NC(=O)[C@H](CC(N)=O)NC(=O)[C@H](CCC(N)=O)NC(=O)[C@H](Cc2ccccc2)NC(=O)[C@@H](Cc2ccc(OC)cc2)NC(=O)Cc2ccccc2)C(N)=O)C(=O)NCC(N)=O)NC(=O)[C@H](CC(N)=O)NC(=O)[C@H](CCC(N)=O)NC1=O` [Compound 7], for which the EC50 is greater than 10000 nM and the Emax amounted to 24%.
For `CC[C@H](C)[C@@H]1NC(=O)[C@H](Cc2ccccc2)NC(=O)[C@@H](O)CSSC[C@@H](C(=O)N2CCC[C@H]2C(=O)N[C@@H](CCCNCCCCCNC(=O)CC[C@H](NC(=O)[C@H](CCCNC(=N)N)NC(=O)[C@@H]2CCCN2C(=O)[C@H](C)NC(=O)[C@H](CC(N)=O)NC(=O)[C@H](CCC(N)=O)NC(=O)[C@H](Cc2ccccc2)NC(=O)[C@@H](Cc2ccc(OC)cc2)NC(=O)Cc2ccccc2)C(N)=O)C(=O)NCC(N)=O)NC(=O)[C@H](CC(N)=O)NC(=O)[C@H](CCC(N)=O)NC1=O` [Compound 23], in that order: 1.7 nM and 51%.
Taken in the same sequence, the figures for `CC[C@H](C)[C@@H]1NC(=O)[C@H](Cc2ccccc2)NC(=O)[C@@H](N)CSSC[C@@H](C(=O)N2CCC[C@H]2C(=O)N[C@@H](CCNC(=O)[C@@H](N)CCCCNC(=O)CC[C@@H](NC(=O)[C@H](CCCNC(=N)N)NC(=O)[C@@H]2CCCN2C(=O)[C@H](C)NC(=O)[C@H](CC(N)=O)NC(=O)[C@H](CCC(N)=O)NC(=O)[C@H](Cc2ccccc2)NC(=O)[C@@H](Cc2ccc(OC)cc2)NC(=O)Cc2ccccc2)C(N)=O)C(=O)NCC(N)=O)NC(=O)[C@H](CC(N)=O)NC(=O)[C@H](CCCC(N)=O)NC1=O` [Compound 53] (I: H-CFI[Aad](NH2)NCP[Dab]G-NH2 / II: PhAc-[dY](Me)FQNAPR[d(isoGln)][εLys]; disulfide I:1-I:6; amide I:8-II:C) were 1.7 nM and 43%.
For `CC[C@H](C)[C@@H]1NC(=O)[C@H](Cc2ccccc2)NC(=O)[C@@H](N)CSSC[C@@H](C(=O)N2CCC[C@H]2C(=O)N[C@@H](CCCNCCCCCCNC(=O)CC[C@H](NC(=O)[C@H](CCCNC(=N)N)NC(=O)[C@@H]2CCCN2C(=O)[C@H](C)NC(=O)[C@H](CC(N)=O)NC(=O)[C@H](CCC(N)=O)NC(=O)[C@H](Cc2ccccc2)NC(=O)[C@@H](Cc2ccc(OC)cc2)NC(=O)Cc2ccccc2)C(N)=O)C(=O)NCC(N)=O)NC(=O)[C@H](CC(N)=O)NC(=O)[C@H](CCC(N)=O)NC1=O` [Compound 4], in that order: 1.5 nM and 24%.
As for `CCCCCCC(=O)NCCCC[C@H](NC(=O)CC[C@H](NC(=O)[C@H](CCCNC(=N)N)NC(=O)[C@@H]1CCCN1C(=O)[C@H](C)NC(=O)[C@H](CC(N)=O)NC(=O)[C@H](CCC(N)=O)NC(=O)[C@H](Cc1ccccc1)NC(=O)[C@@H](Cc1ccc(OC)cc1)NC(=O)Cc1ccccc1)C(N)=O)C(=O)NCCCC[C@H](N)C(=O)NCC[C@H](NC(=O)[C@@H]1CCCN1C(=O)[C@@H]1CSSC[C@H](N)C(=O)N[C@@H](Cc2ccccc2)C(=O)N[C@@H]([C@@H](C)CC)C(=O)N[C@@H](CCC(N)=O)C(=O)N[C@@H](CC(N)=O)C(=O)N1)C(=O)NCC(N)=O` [Compound 43] (I: H-CFIQNCP[Dab]G-NH2 / II: PhAc-[dY](Me)FQNAPR[isoGln]K(Heptanoyl)[εLys]; disulfide I:1-I:6; amide I:8-II:C), the EC50 came out at 1.4 nM and the Emax turned out to be 59%.
Turning to `CC[C@H](C)[C@@H]1NC(=O)[C@H](Cc2ccccc2)NC(=O)[C@@H](N)CSSC[C@@H](C(=O)N2CCC[C@H]2C(=O)N[C@@H](CCNC(=O)[C@H](N)CCCCNC(=O)CC[C@@H](NC(=O)[C@H](CCCNC(=N)N)NC(=O)[C@@H]2CCCN2C(=O)[C@H](C)NC(=O)[C@H](CC(N)=O)NC(=O)[C@H](CCC(N)=O)NC(=O)[C@H](Cc2ccccc2)NC(=O)[C@@H](Cc2ccc(OC)cc2)NC(=O)Cc2ccccc2)C(N)=O)C(=O)NCC(N)=O)NC(=O)[C@H](CC(N)=O)NC(=O)[C@H](CCCC(N)=O)NC1=O` [Compound 62] (I: H-CFI[Aad](NH2)NCP[Dab]G-NH2 / II: PhAc-[dY](Me)FQNAPR[d(isoGln)][d(εLys)]; disulfide I:1-I:6; amide I:8-II:C), the EC50 stood at 2.5 nM and the Emax came out at 31%.
Taken in the same sequence, the figures for `CC[C@H](C)[C@@H]1NC(=O)[C@H](Cc2ccccc2)NC(=O)[C@@H](N)CSSC[C@@H](C(=O)N2CCC[C@H]2C(=O)N[C@@H](CCNC(=O)[C@H](N)CCCCNC(=O)CC[C@H](NC(=O)[C@H](CCCNC(=N)N)NC(=O)[C@@H]2CCCN2C(=O)[C@H](C)NC(=O)[C@H](CC(N)=O)NC(=O)[C@H](CCC(N)=O)NC(=O)[C@H](Cc2ccccc2)NC(=O)[C@@H](Cc2ccc(OC)cc2)NC(=O)Cc2ccccc2)C(N)=O)C(=O)NCC(N)=O)NC(=O)[C@H](CC(N)=O)NC(=O)[C@H](CCC(N)=O)NC1=O` [Compound 39] (I: H-CFIQNCP[Dab]G-NH2 / II: PhAc-[dY](Me)FQNAPR[isoGln][d(εLys)]; disulfide I:1-I:6; amide I:8-II:C) were 1.8 nM and 48%.
For `CC[C@H](C)[C@@H]1NC(=O)[C@H](Cc2ccccc2)NC(=O)[C@@H](N)CSSC[C@@H](C(=O)N2CCC[C@H]2C(=O)N[C@@H](CCCNCCCCCNC(=O)CC[C@H](NC(=O)[C@H](CCCNC(=N)N)NC(=O)[C@@H]2CCCN2C(=O)[C@H](CCCNC(N)=O)NC(=O)[C@H](CC(N)=O)NC(=O)[C@H](CCC(N)=O)NC(=O)[C@H](Cc2ccccc2)NC(=O)[C@@H](Cc2ccc(OC)cc2)NC(=O)Cc2ccccc2)C(N)=O)C(=O)NCC(N)=O)NC(=O)[C@H](CC(N)=O)NC(=O)[C@H](CCC(N)=O)NC1=O` [Compound 15], in that order: 2.3 nM and 44%.

Values taken from US20160122386A1, “V1A RECEPTOR AGONISTS” (FERRING B.V., priority 2014, published 2016).
